Experimental data reported in patent US20230085307A1, “PYRIDAZINONE COMPOUND AND HERBICIDE” (NISSAN CHEMICAL CORPORATION, priority 2019, published 2023).

Columns and labels:
redroot pigweed [1] = experiment: Test Example 4: herbicidal effect by soil treatment (Table 19, symbol N); assay type: in vivo, redroot pigweed (Amaranthus retroflexus); settings: amount of applied herbicide 320 g/ha
Outline: (§1)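 Three weeks of greenhouse growth at 25° C. to 30° C. followed a uniform surface spray of water-diluted emulsion at a predetermined herbicide amount. Seeds had been sown beforehand under about 1.5 cm of sterilized diluvial soil. Grading followed criteria set out in an earlier test.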

redroot pigweed [2] = experiment: Test Example 5: herbicidal effect by foliage application, plastic box (Table 20, symbol N); assay type: in vivo, redroot pigweed (Amaranthus retroflexus); settings: foliage application, AAH 320 g/ha, evaluated three weeks after application
Outline: (§2)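 Plants sown in sterilized diluvial soil and grown 14 days in a greenhouse at 25° C to 30° C, then sprayed on the foliage with the compound's emulsion diluted in water to a predetermined herbicide amount. Injury to weeds and crops scored three weeks after application on a visual rating scale.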

barnyard grass [3] = experiment: Test Example 4: herbicidal effect by soil treatment (Table 19, symbol H); assay type: in vivo, barnyard grass (Echinochloa crus-galli); settings: amount of applied herbicide 320 g/ha
Outline: as §1

barnyard grass [4] = experiment: Test Example 3: herbicidal effect by foliage application, Wagner pot (Table 18, symbol H); assay type: in vivo, barnyard grass (Echinochloa crus-galli); settings: amount of applied herbicide 320 g/ha
Outline: (§3)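 Plants were sown in alluvial soil held under 0.1–0.5 cm standing water and grown 14 days in a greenhouse at 25–30 °C. An emulsifiable formulation, water-diluted to the set dose, was then sprayed onto the foliage, and effects were scored three weeks later using previously defined criteria.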

blackgrass [5] = experiment: Test Example 5: herbicidal effect by foliage application, plastic box (Table 20, symbol J); assay type: in vivo, blackgrass (Alopecurus myosuroides); settings: foliage application, AAH 320 g/ha, evaluated three weeks after application
Outline: as §2

windgrass [6] = experiment: Test Example 5: herbicidal effect by foliage application, plastic box (Table 20, symbol L); assay type: in vivo, windgrass (Apera spica-venti); settings: foliage application, AAH 320 g/ha, evaluated three weeks after application
Outline: as §2

chickweed [7] = experiment: Test Example 5: herbicidal effect by foliage application, plastic box (Table 20, symbol P); assay type: in vivo, common chickweed (Stellaria media); settings: foliage application, AAH 320 g/ha, evaluated three weeks after application
Outline: as §2

wild oat [8] = experiment: Test Example 5: herbicidal effect by foliage application, plastic box (Table 20, symbol I); assay type: in vivo, wild oat (Avena fatua); settings: foliage application, AAH 320 g/ha, evaluated three weeks after application
Outline: as §2

velvetleaf [9] = experiment: Test Example 5: herbicidal effect by foliage application, plastic box (Table 20, symbol M); assay type: in vivo, velvetleaf (Abutilon theophrasti); settings: foliage application, AAH 320 g/ha, evaluated three weeks after application
Outline: as §2

windgrass [10] = experiment: Test Example 4: herbicidal effect by soil treatment (Table 19, symbol L); assay type: in vivo, windgrass (Apera spica-venti); settings: amount of applied herbicide 320 g/ha
Outline: as §1

rice flat sedge = experiment: Test Example 3: herbicidal effect by foliage application, Wagner pot (Table 18, symbol E); assay type: in vivo, rice flat sedge (Cyperus iria); settings: amount of applied herbicide 320 g/ha
Outline: as §3

blackgrass [11] = experiment: Test Example 4: herbicidal effect by soil treatment (Table 19, symbol J); assay type: in vivo, blackgrass (Alopecurus myosuroides); settings: amount of applied herbicide 320 g/ha
Outline: as §1

chickweed [12] = experiment: Test Example 4: herbicidal effect by soil treatment (Table 19, symbol P); assay type: in vivo, common chickweed (Stellaria media); settings: amount of applied herbicide 320 g/ha
Outline: as §1

wild oat [13] = experiment: Test Example 4: herbicidal effect by soil treatment (Table 19, symbol I); assay type: in vivo, wild oat (Avena fatua); settings: amount of applied herbicide 320 g/ha
Outline: as §1

velvetleaf [14] = experiment: Test Example 4: herbicidal effect by soil treatment (Table 19, symbol M); assay type: in vivo, velvetleaf (Abutilon theophrasti); settings: amount of applied herbicide 320 g/ha
Outline: as §1

lambsquarters [15] = experiment: Test Example 4: herbicidal effect by soil treatment (Table 19, symbol O); assay type: in vivo, lambsquarters (Chenopodium album); settings: amount of applied herbicide 320 g/ha
Outline: as §1

Italian ryegrass [16] = experiment: Test Example 4: herbicidal effect by soil treatment (Table 19, symbol K); assay type: in vivo, Italian ryegrass (Lolium multiflorum); settings: amount of applied herbicide 320 g/ha
Outline: as §1

persian speedwell [17] = experiment: Test Example 4: herbicidal effect by soil treatment (Table 19, symbol R); assay type: in vivo, Persian speedwell (Veronica persica); settings: amount of applied herbicide 320 g/ha
Outline: as §1

Italian ryegrass [18] = experiment: Test Example 5: herbicidal effect by foliage application, plastic box (Table 20, symbol K); assay type: in vivo, Italian ryegrass (Lolium multiflorum); settings: foliage application, AAH 320 g/ha, evaluated three weeks after application
Outline: as §2

barnyard grass [19] = experiment: Test Example 5: herbicidal effect by foliage application, plastic box (Table 20, symbol H); assay type: in vivo, barnyard grass (Echinochloa crus-galli); settings: foliage application, AAH 320 g/ha, evaluated three weeks after application
Outline: as §2

green foxtail [20] = experiment: Test Example 5: herbicidal effect by foliage application, plastic box (Table 20, symbol G); assay type: in vivo, green foxtail (Setaria viridis); settings: foliage application, AAH 320 g/ha, evaluated three weeks after application
Outline: as §2

persian speedwell [21] = experiment: Test Example 5: herbicidal effect by foliage application, plastic box (Table 20, symbol R); assay type: in vivo, Persian speedwell (Veronica persica); settings: foliage application, AAH 320 g/ha, evaluated three weeks after application
Outline: as §2

lambsquarters [22] = experiment: Test Example 5: herbicidal effect by foliage application, plastic box (Table 20, symbol O); assay type: in vivo, lambsquarters (Chenopodium album); settings: foliage application, AAH 320 g/ha, evaluated three weeks after application
Outline: as §2

green foxtail [23] = experiment: Test Example 4: herbicidal effect by soil treatment (Table 19, symbol G); assay type: in vivo, green foxtail (Setaria viridis); settings: amount of applied herbicide 320 g/ha
Outline: as §1

southern crabgrass [24] = experiment: Test Example 5: herbicidal effect by foliage application, plastic box (Table 20, symbol F); assay type: in vivo, southern crabgrass (Digitaria ciliaris); settings: foliage application, AAH 320 g/ha, evaluated three weeks after application
Outline: as §2

southern crabgrass [25] = experiment: Test Example 4: herbicidal effect by soil treatment (Table 19, symbol F); assay type: in vivo, southern crabgrass (Digitaria ciliaris); settings: amount of applied herbicide 320 g/ha
Outline: as §1

Chinese sprangletop = experiment: Test Example 3: herbicidal effect by foliage application, Wagner pot (Table 18, symbol D); assay type: in vivo, chinese sprangletop (Leptochloa chinensis); settings: amount of applied herbicide 320 g/ha
Outline: as §3

SMILES: C#CCOc1c(C)nn(C)c(=O)c1-c1c(-c2ccc(OC(F)F)cc2)sc2ccc(F)cc12 [2-301]
- herbicidal effect on N: redroot pigweed (redroot pigweed [1]): 0 (Herbicidal rate of 5% or less (almost no effect))
- N: redroot pigweed, herbicidal effect (criteria 0-5) (redroot pigweed [2]): 3 (Herbicidal rate of 40% or more and less than 70%)
- herbicidal effect on H: barnyard grass (barnyard grass [3]): 0 (Herbicidal rate of 5% or less (almost no effect))
- herbicidal effect on H: barnyard grass (barnyard grass [4]): 3 (Herbicidal rate of 40% or more and less than 70%)
- J: blackgrass, herbicidal effect (criteria 0-5) (blackgrass [5]): 0 (Herbicidal rate of 5% or less (almost no effect))
- L: windgrass, herbicidal effect (criteria 0-5) (windgrass [6]): 0 (Herbicidal rate of 5% or less (almost no effect))
- P: chickweed, herbicidal effect (criteria 0-5) (chickweed [7]): 5 (Herbicidal rate of 90% or more (almost completely withered))
- I: wild oat, herbicidal effect (criteria 0-5) (wild oat [8]): 0 (Herbicidal rate of 5% or less (almost no effect))
- M: velvetleaf, herbicidal effect (criteria 0-5) (velvetleaf [9]): 5 (Herbicidal rate of 90% or more (almost completely withered))
- herbicidal effect on L: windgrass (windgrass [10]): 0 (Herbicidal rate of 5% or less (almost no effect))
- herbicidal effect on E: rice flat sedge (rice flat sedge): 2 (Herbicidal rate of 20% or more and less than 40%)
- herbicidal effect on J: blackgrass (blackgrass [11]): 0 (Herbicidal rate of 5% or less (almost no effect))
- herbicidal effect on P: chickweed (chickweed [12]): 0 (Herbicidal rate of 5% or less (almost no effect))
- herbicidal effect on I: wild oat (wild oat [13]): 0 (Herbicidal rate of 5% or less (almost no effect))
- herbicidal effect on M: velvetleaf (velvetleaf [14]): 0 (Herbicidal rate of 5% or less (almost no effect))
- herbicidal effect on O: lambsquarters (lambsquarters [15]): 0 (Herbicidal rate of 5% or less (almost no effect))
- herbicidal effect on K: Italian ryegrass (Italian ryegrass [16]): 0 (Herbicidal rate of 5% or less (almost no effect))
- herbicidal effect on R: persian speedwell (persian speedwell [17]): 3 (Herbicidal rate of 40% or more and less than 70%)
- K: Italian ryegrass, herbicidal effect (criteria 0-5) (Italian ryegrass [18]): 0 (Herbicidal rate of 5% or less (almost no effect))
- H: barnyard grass, herbicidal effect (criteria 0-5) (barnyard grass [19]): 0 (Herbicidal rate of 5% or less (almost no effect))
- G: green foxtail, herbicidal effect (criteria 0-5) (green foxtail [20]): 0 (Herbicidal rate of 5% or less (almost no effect))
- R: persian speedwell, herbicidal effect (criteria 0-5) (persian speedwell [21]): 5 (Herbicidal rate of 90% or more (almost completely withered))
- O: lambsquarters, herbicidal effect (criteria 0-5) (lambsquarters [22]): 5 (Herbicidal rate of 90% or more (almost completely withered))
- herbicidal effect on G: green foxtail (green foxtail [23]): 0 (Herbicidal rate of 5% or less (almost no effect))
- F: southern crabgrass, herbicidal effect (criteria 0-5) (southern crabgrass [24]): 0 (Herbicidal rate of 5% or less (almost no effect))
- herbicidal effect on F: southern crabgrass (southern crabgrass [25]): 0 (Herbicidal rate of 5% or less (almost no effect))
- herbicidal effect on D: Chinese sprangletop (Chinese sprangletop): 0 (Herbicidal rate of 5% or less (almost no effect))
